In ChEMBL document CHEMBL1132529 (Bioorg Med Chem Lett, 1999):

Molecular target: T1, Neutrophil elastase (Homo sapiens, UniProt P08246)
T1 sequence (P08246 whole entry): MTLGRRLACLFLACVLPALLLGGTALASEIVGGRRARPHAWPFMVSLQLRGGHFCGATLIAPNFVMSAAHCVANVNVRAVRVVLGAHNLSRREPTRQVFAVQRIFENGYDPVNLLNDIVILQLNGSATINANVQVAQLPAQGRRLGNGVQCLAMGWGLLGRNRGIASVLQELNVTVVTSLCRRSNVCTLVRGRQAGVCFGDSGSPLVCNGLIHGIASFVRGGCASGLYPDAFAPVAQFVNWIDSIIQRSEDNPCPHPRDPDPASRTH
Test: Inhibitory constant for human neutrophil elastase

Ki: 270 µM
SMILES: CC[C@@H](C)[C@H](NCc1ccccc1)C(=O)N[C@@H](CCCCNC(=O)C12CC3CC(CC(C3)C1)C2)C(=O)N[C@@H](CS)C(=O)N[C@H](C(=O)O)C(C)C
